Data on 67 molecules can be found in PubChem BioAssay AID179 (DTP/NCI, 2004).

The test system of this experiment is CEM cells HIV-1 protection, formazan growth assay. Description: NCI AIDS Antiviral Assay. The settings on record: for IC50: measured here: growth of uninfected CEM cells. In outline:
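Protection of CEM cells against HIV-1 measured as cell growth via soluble formazan read-out, with five concentrations tested on both infected and uninfected cells; failure to protect may reflect toxicity.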

Calls of active or inactive are those of the source.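 The calls were made as follows: active = compounds giving half or more protection of infected cells from virus-caused growth loss, again on retest; inactive = the rest.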 Where a SMILES comes first, the peptide text is derived from it. Bounds are passed on as bounds.

For the molecule `COc1ccc(COCC[C@H](C)OC2OC(CO[Si](C)(C)C(C)(C)C)C(OC(=O)CCCN=[N+]=[N-])C(OC(=O)CCCN=[N+]=[N-])C2OC(=O)CCCN=[N+]=[N-])cc1` (some centres undefined), the EC50 is above 200 µM and the half-maximal inhibitory concentration (IC50) turned out to be 26.3 µM.

For `CCCCC1=NNC(=O)C1`, the EC50 is above 200 µM and the IC50 is above 200 µM.

In the case of `O=S(=O)(SS(=O)(=O)c1ccccc1)c1ccccc1`, the EC50 is above 115 µM and the IC50 is above 115 µM.

As for `COc1ccc(C2=NNc3n[nH]c(=S)n3N2)cc1OC`, the EC50 was above 64.6 µM and the 50% inhibitory concentration (IC50) is above 64.6 µM.

As to `CCNCCNC(=O)c1ccc(I)cc1`, the outcome was inactive.

`O=C1NC2OC(CO)C(O)C2O1` (centres undefined): the EC50 was above 200 µM and the half-maximal inhibitory concentration (IC50) is above 200 µM.

`CC(C)OC(=O)c1cc(NC(=O)C(C)(C)C)c(F)cc1Cl`: the outcome was inactive.

For `CC(=O)N1N=C(c2ccccc2Nc2ccccc2C2=NN(C(C)=O)C(c3ccccc3)O2)OC1c1ccccc1` (centres undefined), the EC50 is above 200 µM and the half-inhibitory concentration (IC50) turned out to be 6.17 µM.

Turning to `Cc1ccc(SCc2nc3ccccc3c(C)[n+]2[O-])cc1`, the concentration for a half-maximal effect (EC50) was 9.33 µM and the IC50 was 49 µM.

On to `CC(C)(C)c1cc(N=O)cc(C(C)(C)C)c1O`, for which the EC50 was above 200 µM and the IC50 came to 18.6 µM.

Take `O=c1[nH]nc(Cc2ccccc2)n1CCCl`: the EC50 is above 200 µM and the IC50 was above 200 µM.

For the molecule `CCC(C)C(NC(=O)C(CCCCN)NC(=O)CNC(=O)C(NC(=O)C(NC(=O)C(NC(=O)C(Cc1ccccc1)NC(=O)C(C)NC(=O)C(CCCNC(=N)N)NC(=O)CNC(=O)C1CCCN1C(=O)CNC(=O)C(CCCNC(=N)N)NC(=O)C(CCC(N)=O)NC(=O)C(NC(=O)C(CCCNC(=N)N)NC(=O)C(NC(=O)C(CO)NC(=O)C(CCCCN)NC(=O)C(CCCNC(=N)N)NC(=O)C(NC(=O)C(CC(N)=O)NC(=O)C(N)CC(=O)NC1OC(CO)C(O)C(O)C1NC(C)=O)C(C)O)C(C)CC)C(C)CC)C(C)C)C(C)O)C(C)CC)C(=O)NCC(N)=O` (centres undefined), the EC50 is above 50.1 µM and the 50% inhibitory concentration (IC50) was above 50.1 µM.

With `[N-]=[N+]=NCc1cccc(Nc2cc(=O)[nH]c(=O)[nH]2)c1`, the EC50 was 49 µM and the IC50 is above 200 µM.

Regarding `CN(Nc1cc(=O)[nH]c(=O)[nH]1)c1ccccc1`, the EC50 is above 200 µM and the IC50 is above 200 µM.

As for `O=C1NC(=Nc2ccccc2)C(=Nc2ccccc2)N1c1ccccc1`, the EC50 is above 200 µM and the 50% inhibitory concentration (IC50) came to 14.8 µM.

Regarding `N#C/C(N)=C(\C#N)N=CNc1ccc(N)cc1`, the EC50 was above 200 µM and the IC50 was above 100 µM.

In the case of `c1ccc(C(NC2CCCCC2NCCNC2CCCCC2NC(c2ccccc2)(c2ccccc2)c2ccccc2)(c2ccccc2)c2ccccc2)cc1` (centres undefined), the EC50 is above 200 µM and the half-inhibitory concentration (IC50) amounted to 6.17 µM.

With `O=C1C(=Cc2cccc(Cl)c2)N=C(c2ccccc2)N1n1c(-c2ccccc2)nc2ccccc2c1=O`, the EC50 is above 200 µM and the 50% inhibitory concentration (IC50) was 35.5 µM.

In the case of `CC1(C)CC(=O)C(=CN2C(=O)CNC2=S)C(=O)C1`, the EC50 was above 200 µM and the IC50 is above 200 µM.

Take `CC(=O)Oc1cccc2c1[nH]c(=O)c1c(OC(C)=O)c3c(cc12)OCO3`: the outcome was inactive.

In the case of `CC(=O)OCCC(O[Si](c1ccccc1)(c1ccccc1)C(C)(C)C)C(C)(C)O` (centres undefined), the outcome was inactive.

On to `CC[C@H](CCCC[C@H]1CC[C@@H]2CC(=O)C[C@H]12)OC`, for which the EC50 was above 200 µM and the IC50 stood at 117 µM.

Turning to `CNC(=O)O/N=C\C=N\OC(=O)NC`, the result was inactive.

For `COc1nn(C)c(=O)c2cccnc12`, the EC50 is above 1100 µM and the IC50 was determined as 676 µM.

On to `CC(=O)c1sc2c(c1OC(=O)c1ccc(Cl)cc1Cl)c(=O)n(-c1ccccc1)c(=S)n2-c1ccccc1`, for which the EC50 was above 200 µM and the IC50 is 0.0631 µM.

As to `CCOC(=O)C(NC(C)=O)(Nc1ccc(S(N)(=O)=O)cc1)C(F)(F)F` (centres undefined), the EC50 was above 200 µM and the IC50 is above 200 µM.

Take `Cc1nc(Cl)c(Cl)c(Cl)n1`: the result was inactive.

In the case of `Cc1cc(C)c(C)c(-n2[nH]c(=O)n(C)c2=O)c1C`, the EC50 is above 200 µM and the IC50 is above 200 µM.

Take `Cc1ccc(S(=O)(=O)OC2C3OC(C)(C)OC3OC2C(c2cc(O)c3c(c2O)C(=O)c2ccccc2C3=O)c2cc(O)c3c(c2O)C(=O)c2ccccc2C3=O)cc1` (centres undefined): the EC50 was above 200 µM and the half-maximal inhibitory concentration (IC50) is above 200 µM.

On to `NCCCCC1NC(=O)C(CO)NC(=O)C(Cc2cnc[nH]2)NC(=O)CNC(=O)C(Cc2c[nH]c3ccccc23)NC(=O)C(Cc2c[nH]c3ccccc23)NC(=O)C(Cc2ccccc2)NC1=O` (centres undefined) (cyclo(GHSKFWW); configuration not given here), for which the EC50 is above 50.1 µM and the IC50 is above 50.1 µM.

Turning to `CCOC(=O)/C(O)=C/c1nc2ccccc2nc1C`, the EC50 was above 46.8 µM and the half-inhibitory concentration (IC50) was above 46.8 µM.

Regarding `O=C(O)c1ccccc1-n1nc(C(=O)O)c(N=Nc2ccc(/C=C/c3ccc(N=Nc4c(C(=O)O)nn(-c5ccccc5C(=O)O)c4O)cc3S(=O)(=O)O)c(S(=O)(=O)O)c2)c1O`, the EC50 is above 0.977 µM and the IC50 is above 0.977 µM.

For the molecule `c1cncc(C2c3[nH]c4ccccc4c3CCN2CCCN2CCCCC2)c1` (centres undefined), the EC50 is above 3.89 µM and the IC50 is above 3.89 µM.

For the molecule `O=C(c1ccccc1)C1S(=O)(=O)OCCOS1(=O)=O`, the EC50 is above 5130 µM and the 50% inhibitory concentration (IC50) stood at 3090 µM.

Consider `CC1(O)CC2C(CC1SCCO)C2(C)C` (centres undefined), for which the EC50 was above 1070 µM and the IC50 worked out at 631 µM.

Regarding `N#C/C(=C(\N)c1ccccc1)c1ccccc1`, the EC50 is above 200 µM and the IC50 is 97.7 µM.

On to `COc1ccc(-c2cc(-c3ccccc3)c3ccccc3n2)c(OC)c1OC`, for which the EC50 is above 200 µM and the half-inhibitory concentration (IC50) was above 200 µM.

For `Oc1cc(O)c2c(c1)O[C@@H](c1ccc(O)c(O)c1)[C@H](O)C2`, the EC50 was above 200 µM and the 50% inhibitory concentration (IC50) is above 200 µM.

Consider `Cc1cc([N+](=O)[O-])ccc1Nc1cccc(Cl)c1C`, for which the outcome was inactive.

In the case of `Cc1cc2c(cc1C)N1C(Cl)=C3CCCCC3=C(C#N)C1N2` (centres undefined), the EC50 was above 20 µM and the half-inhibitory concentration (IC50) amounted to 0.562 µM.

Turning to `COc1ccc2ccccc2c1CN1CCOCCOCCN(Cc2c(OC)ccc3ccccc23)CCOCCOCC1`, the EC50 was above 8.71 µM and the half-inhibitory concentration (IC50) is 4.9 µM.

With `CS(=O)(=O)O[C@H]1[C@H](O)c2ccccc2[C@@H]1N=[N+]=[N-]`, the EC50 is above 200 µM and the IC50 is above 200 µM.

With `Cc1ccc(N2C(=O)/C(=C\c3ccc(N(CCC#N)CCC#N)cc3)N=C2COc2ccccc2)cc1`, the EC50 is above 38 µM and the IC50 is above 38 µM.

For `N#CC(C#N)=Cc1ccc(C#N)cc1`, the EC50 was above 141 µM and the IC50 is 20.4 µM.

In the case of `ClCCNCCNCCCl.O=c1cccccc1[O-].O=c1cccccc1[O-].[Co+3].[O-][Cl+3]([O-])([O-])[O-]`, the EC50 is above 200 µM and the 50% inhibitory concentration (IC50) is 5.01 µM.

As for `C=CC1(c2ccc(OC)cc2)OCCCO1`, the EC50 is above 200 µM and the half-inhibitory concentration (IC50) was determined as 97.7 µM.

Turning to `C[C@@H](O)CCC(=O)c1ccoc1`, the EC50 is above 1480 µM and the concentration for half-maximal inhibition (IC50) was above 1480 µM.

With `O=C(CCl)Nc1ccc(C(=O)N/N=C/c2ccc(Cl)cc2)cc1`, the EC50 is above 200 µM and the IC50 is 2.75 µM.

On to `CN(NC(=O)/C(=C\c1ccccc1Cl)NC(=O)c1ccccc1)c1cn[nH]c(=O)c1Cl`, for which the EC50 was above 100 µM and the IC50 worked out at 52.5 µM.

Take `O=C(Nc1ccccc1[N+](=O)[O-])/C(=N/Nc1cccc(Cl)c1)c1c(O)c2ccccc2oc1=O`: the EC50 was above 53.7 µM and the IC50 was above 53.7 µM.

Turning to `CC(C)=CCC/C(C)=C/CC/C(C)=C/Cc1c(O)c2ccccc2oc1=O`, the EC50 was above 186 µM and the concentration for half-maximal inhibition (IC50) was 95.5 µM.

For the molecule `OC1CN2CCC[C@@H](O)[C@@H]2C1O` (some centres undefined), the EC50 is above 200 µM and the IC50 is above 200 µM.

With `CC1(C)CC23C(=O)N(c4ccccc4)C(=Nc4ccccc4)NC2=CC(C#N)=C(C#N)C3O1` (centres undefined), the EC50 was above 12 µM and the IC50 was above 12 µM.

As for `O=C1NC23C4C5C6C4C2(N1)C6C53` (centres undefined), the EC50 was above 1550 µM and the IC50 was determined as 891 µM.

In the case of `CC1CCCCC12NC(=O)NC2=O` (centres undefined), the EC50 is above 200 µM and the IC50 was above 200 µM.

On to `O=C1CC2(CCC(O)(c3cccs3)C(C(=O)c3cccs3)C2)C(=O)c2ccccc2N1` (centres undefined), for which the EC50 is above 200 µM and the 50% inhibitory concentration (IC50) was above 200 µM.

Take `CC(C(N)=O)N(C)C(=O)c1cc2ccccc2[n+](Cc2ccccc2)c1` (centres undefined): the result was inactive.

On to `Cn1c(=O)c2c(nc(Nc3ccc(Cl)cc3)n3c(=O)n(-c4ccccc4)c(=O)n23)n(C)c1=O`, for which the EC50 is above 200 µM and the IC50 worked out at 145 µM.

On to `CCOC(=O)C1=CC(C)(C(=O)OCC)Nc2c(nc(OC)[nH]c2=O)N1` (centres undefined), for which the EC50 was above 200 µM and the half-maximal inhibitory concentration (IC50) is above 200 µM.

On to `CCOC(=O)C1(C(=O)OCC)CC(=O)[C@@]2(C1)OCC[C@H]1OC(=O)C[C@H]12`, for which the EC50 is above 200 µM and the IC50 is above 200 µM.

`C[C@]12CCC3c4ccc(OS(=O)(=O)O)cc4CC[C@H]3C1CC[C@@H]2O` (some centres undefined): the outcome was inactive.

On to `O=C(CSc1nnc(Cc2ccccc2)o1)Nc1cccc(Cl)c1`, for which the EC50 was above 100 µM and the half-maximal inhibitory concentration (IC50) stood at 49 µM.

Consider `Cc1ccc(S(=O)(=O)N/N=C(\c2nc3ccc([N+](=O)[O-])cc3[nH]c2=O)C(O)c2ccc([N+](=O)[O-])cc2)cc1` (centres undefined), for which the EC50 is above 126 µM and the half-maximal inhibitory concentration (IC50) turned out to be 112 µM.

Consider `CCC(=O)N=c1sc(SCc2ccccc2)nn1C(=O)SC` (tested in a mixture with another compound), for which the EC50 was above 200 µM and the IC50 was 10.7 µM.

`CCCCCCCCCCCC(O)=C1C(=O)CCCC1=O`: the EC50 is above 17.8 µM and the IC50 was above 17.8 µM.

As for `Cc1ccc(S(=O)(=O)Nn2c(O)c(C#N)c(-c3ccc(N(C)C)cc3)c(C#N)c2=O)cc1`, the EC50 is above 200 µM and the 50% inhibitory concentration (IC50) is above 200 µM.

As for `O=C(O)c1sc(=S)sc1C(=O)O`, the result was inactive.
